Data published in patent publication US20190375708A1 (VenatoRx Pharmaceuticals, Inc., priority 2018, published 2019).

How the values were obtained:
[1] = In vitro cytotoxicity assay (MTT cell viability) in HepG2 cells; assay type: cell-based, human; details: human
In short: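 Read-out: MTT formazan absorbance at 492 nm, expressed as % of vehicle signal; CC50 by 4-parameter non-linear regression. Parental HepG2, 20,000 cells/well, treated 7 days with compound from 30 μM down to 1.0 nM.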

[2] = test system: HBV replication in HepAD38 cells; test: Anti-HBV replication assay in HepAD38 cells (QPCR of extracellular HBV DNA); assay type: cell-based, HBV (genotype D, serotype ayw); details: Hepatitis B virus, 168 h, 7 days incubation, extracellular HBV DNA by QPCR, read-out: Anti-HBV EC50
In short: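 Steps: seed HepAD38 overnight without tetracycline; refresh medium and add 1 log10 serial dilutions ([…]); incubate 7 days at 37 °C; quantify supernatant HBV DNA by QPCR; derive EC50 from a 4-parameter dose-response fit.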

Q: For `O=C(NC1(CO)CC(F)(F)C1)C(=O)c1c(Cl)c(C(=O)Nc2ccnc(F)c2)c2n1CCCC2` [Example 511, 2-chloro-3-(2-((3,3-difluoro-1-(hydroxymethyl)cyclobutyl)amino)-2-oxoacetyl)-N-(2-fluoropyridin-4-yl)-5,6,7,8-tetrahydroindolizine-1-carboxamide], which CC50 at 7 days [1] is on record?
A: > 30 µM

Q: What about the EC50 [2] of the same compound?
A: 0.05 to 0.499 µM

Q: For `O=C(N[C@H]1C[C@H](O)C1)C(=O)c1c(Cl)c(C(=O)Nc2ccc(F)c(Cl)c2)c2n1CCCC2` [Example 531, 2-chloro-N-(3-chloro-4-fluorophenyl)-3-(2-(((1r,3r)-3-hydroxycyclobutyl)amino)-2-oxoacetyl)-5,6,7,8-tetrahydroindolizine-1-carboxamide], which CC50 at 7 days [1] is on record?
A: > 30 µM

Q: And the EC50 [2]?
A: 0.05 to 0.499 µM

Q: For `Cc1cc(NC(=O)c2c(Cl)c(C(=O)C(=O)NCC(C)(C)O)n3c2CCC3)ccc1F` [Example 550, 6-chloro-N-(4-fluoro-3-methylphenyl)-5-(2-((2-hydroxy-2-methylpropyl)amino)-2-oxoacetyl)-2,3-dihydro-1H-pyrrolizine-7-carboamide], which CC50 at 7 days [1] is on record?
A: > 30 µM

Q: What about the EC50 [2] of the same compound?
A: < 0.05 µM

Q: Which CC50 at 7 days [1] does the source give for `Cc1cc(NC(=O)c2c(C)c(C(=O)C(=O)N[C@@H](C(=O)O)[C@H](C)O)n(C)c2C)ccc1F` [Example 35, (2-(4-((4-fluoro-3-methylphenyl)carbamoyl)-1,3,5-trimethyl-1H-pyrrol-2-yl)-2-oxoacetyl)-D-threonine] here?
A: > 30 µM

Q: And the EC50 [2]?
A: > 1 µM

Q: Which results are given for `O=C(N[C@H]1C[C@H](O)C1)C(=O)c1c(Cl)c(C(=O)Nc2ccc(F)c(F)c2)c2n1CCC2` [Example 551, 6-chloro-N-(3,4-difluorophenyl)-5-(2-(((1r,3r)-3-hydroxycyclobutyl)amino)-2-oxoacetyl)-2,3-dihydro-1H-pyrrolizine-7-carboxamide]?
A: CC50 at 7 days [1]: > 30 µM; EC50 [2]: 0.05 to 0.499 µM

Q: Which results are given for `COc1c(C(=O)Nc2ccc(F)c(F)c2)c(C)n(C)c1C(=O)C(=O)N[C@@H]1CCC[C@@H]1O` [Example 384]?
A: CC50 at 7 days [1]: > 30 µM; EC50 [2]: > 1 µM

Q: Which results are given for `Cc1noc(C(C)NC(=O)C(=O)c2cc(C(=O)Nc3ccc(F)c(C)c3)c3n2CCCC3)n1` (stereo not shown) [Example 414, N-(4-fluoro-3-methylphenyl)-3-(2-((1-(3-cmethyl-1,2,4-oxadiazol-5-yl)ethyl)amino)-2-oxoacetyl)-5,6,7,8-tetrahydroindolizine-1-carboxamide]?
A: CC50 at 7 days [1]: > 30 µM; EC50 [2]: 0.05 to 0.499 µM

Q: Which CC50 at 7 days [1] does the source give for `Cc1noc([C@@H](C)NC(=O)C(=O)c2c(Cl)c(C(=O)Nc3ccc(F)c(Cl)c3)c3n2CCC3)n1` [Example 554, (R)-6-chloro-N-(3-chloro-4-fluorophenyl)-5-(2-((1-(3-methyl-1,2,4-oxadiazol-5-yl)ethyl)amino)-2-oxoacetyl)-2,3-dihydro-1H-pyrrolizine-7-carboxamide] here?
A: 5 to 30 µM

Q: What about the EC50 [2] of the same compound?
A: < 0.05 µM

Q: For `Cc1cc(NC(=O)c2c(Cl)c(C(=O)C(=O)NC3(CO)CC(F)(F)C3)n3c2CCC3)ccc1F` [Example 548, 6-chloro-5-(2-((3,3-difluoro-1-(hydroxymethyl)cyclobutyl)amino)-2-oxoacetyl)-N-(4-fluoro-3-methylphenyl)-2,3-dihydro-1H-pyrrolizine-7-carboxamide], which CC50 at 7 days [1] is on record?
A: 5 to 30 µM

Q: What about the EC50 [2] of the same compound?
A: < 0.05 µM

Q: What does the source list for `Cc1cc(NC(=O)c2c(C)c(C(=O)C(=O)NC(C)(C)CO)n3c2CCCC3)cnc1F` [Example 478, N-(6-fluoro-5-methylpyridin-3-yl)-3-(2-((1-hydroxy-2-methylpropan-2-yl)amino)-2-oxoacetyl)-2-methyl-5,6,7,8-tetrahydroindoliizine-1-carboxamide]?
A: CC50 at 7 days [1]: > 30 µM; EC50 [2]: > 1 µM

Q: What does the source list for `CNC(=O)C1(NC(=O)C(=O)c2c(C)c(C(=O)Nc3ccc(F)c(C)c3)c(C)n2C)CC(F)(F)C1` [Example 104, 5-(2-((3,3-difluoro-1-(methylcarbamoyl)cyclobutyl)amino)-2-oxoacetyl)-N-(4-fluoro-3-methylphenyl)-1,2,4-trimethyl-1H-pyrrole-3-carboxamide]?
A: CC50 at 7 days [1]: > 30 µM; EC50 [2]: < 0.05 µM

Q: Which results are given for `Cc1cc(NC(=O)c2c(C)c(C(=O)C(=O)Nc3nc(CO)cs3)n(C)c2C)ccc1F` [Example 308, N-(4-fluoro-3-methylphenyl)-5-(2-((4-(hydroxymethyl)thiazol-2-yl)amino)-2-oxoacetyl)-1,2,4-trimethyl-1H-pyrrole-3-carboxamide]?
A: CC50 at 7 days [1]: > 30 µM; EC50 [2]: 0.5 to 1 µM

Q: What does the source list for `Cc1cc(NC(=O)c2c(C)c(C(=O)C(=O)NC3CCS(=O)(=O)C(C)(C)C3)n(C)c2C)ccc1F` (stereo not shown) [Example 623, 5-(2-((2,2-dimethyl-1,1-dioxidotetrahydro-2H-thiopyran-4-yl)amino)-2-oxoacetyl)-N-(4-fluoro-3-methylphenyl)-1,2,4-trimethyl-1H-pyrrole-3-carboxamide]?
A: CC50 at 7 days [1]: > 30 µM; EC50 [2]: < 0.05 µM

Q: With `Cc1c(C(=O)Nc2ccc(F)c(Cl)c2)c(C)n(C)c1C(=O)C(=O)Nc1ccc(F)nc1` [Example 312, N-(3-chloro-4-fluorophenyl)-5-(2-((6-fluoropyridin-3-yl)amino)-2-oxoacetyl)-1,2,4-trimethyl-1H-pyrrole-3-carboxamide] as the compound, how does the CC50 at 7 days [1] read?
A: 5 to 30 µM

Q: What about the EC50 [2] of the same compound?
A: < 0.05 µM

Q: Which CC50 at 7 days [1] does the source give for `Cc1cc(NC(=O)c2c(C)c(C(=O)C(=O)N[C@@H](CO)C(=O)O)n(C)c2C)ccc1F` [Example 32, (2-(4-((4-fluoro-3-methylphenyl)carbamoyl)-1,3,5-trimethyl-1H-pyrrol-2-yl)-2-oxoacetyl)-L-serine] here?
A: > 30 µM

Q: What about the EC50 [2] of the same compound?
A: > 1 µM

Q: What does the source list for `Cc1cc(NC(=O)c2c(C)c(C(=O)C(=O)NCCN3CCOCC3)n(C)c2C)ccc1F` [Example 270, N-(4-fluoro-3-methylphenyl)-1,2,4-trimethyl-5-(2-((2-morpholinoethyl)amino)-2-oxoacetyl)-1H-pyrrole-3-carboxamide]?
A: CC50 at 7 days [1]: > 30 µM; EC50 [2]: < 0.05 µM

Q: Which results are given for `Cc1cnc(C(C)(C)NC(=O)C(=O)c2c(C)c(C(=O)Nc3ccc(F)c(C)c3)c(C)n2C)s1` [Example 84, N-(4-fluoro-3-methylphenyl)-1,2,4-trimethyl-5-(2-((2-(5-methylthiazol-2-yl)propan-2-yl)amino)-2-oxoacetyl)-1H-pyrrole-3-carboxamide]?
A: CC50 at 7 days [1]: > 30 µM; EC50 [2]: < 0.05 µM

Q: What does the source list for `Cc1c(C(=O)Nc2ncc(C(F)(F)F)s2)c2n(c1C(=O)C(=O)NC(C)(C)CO)CCCC2` [Example 757, 3-(2-((1-hydroxy-2-methylpropan-2-yl)amino)-2-oxoacetyl)-2-methyl-N-(5-(trifluoromethyl)thiazol-2-yl)-5,6,7,8-tetrahydroindolizine-1-carboxamide]?
A: CC50 at 7 days [1]: > 30 µM; EC50 [2]: 0.05 to 0.499 µM

Q: Which CC50 at 7 days [1] does the source give for `CCOC(=O)[C@H](CO)NC(=O)C(=O)c1c(C)c(C(=O)Nc2ccc(F)c(C)c2)c(C)n1C` [Example 25, ethyl (2-(4-((4-fluoro-3-methylphenyl)carbamoyl)-1,3,5-trimethyl-1H-pyrrol-2-yl)-2-oxoacetyl)-L-serinate] here?
A: > 30 µM

Q: What about the EC50 [2] of the same compound?
A: 0.05 to 0.499 µM

Q: Which CC50 at 7 days [1] does the source give for `CC(C)(C)NC(=O)C(=O)c1cc(C(=O)Nc2ccc(F)c(C#N)c2)c2n1CCCC2` [Example 392, 3-(2-(tert-butylamino)-2-oxoacetyl)-N-(3-cyano-4-fluorophenyl)-5,6,7,8-tetrahydroindolizine-1-carboxamide] here?
A: 5 to 30 µM

Q: And the EC50 [2]?
A: > 1 µM
